According to patent publication US20250230193A1, “CYCLIC COMPOUND HAVING SELECTIVE KRAS INHIBITORY EFFECT ON HRAS AND NRAS” (CHUGAI SEIYAKU KABUSHIKI KAISHA, priority 2022, published 2025):

Assays:
[1] = molecular target: GDP-bound HRAS wild-type protein (Homo sapiens, UniProt P01112); assay: Binding to HRAS by surface plasmon resonance (SPR), Single Cycle Kinetics; conditions: SPR, GDP-bound HRAS wild-type vs GDP-bound KRAS wild-type
[2] = molecular target: GDP-bound NRAS wild-type protein (Homo sapiens, UniProt P01111); assay: Binding to NRAS by surface plasmon resonance (SPR), Single Cycle Kinetics; conditions: SPR, GDP-bound NRAS wild-type vs GDP-bound KRAS wild-type
Sequence of GDP-bound NRAS wild-type protein (P01111 whole entry): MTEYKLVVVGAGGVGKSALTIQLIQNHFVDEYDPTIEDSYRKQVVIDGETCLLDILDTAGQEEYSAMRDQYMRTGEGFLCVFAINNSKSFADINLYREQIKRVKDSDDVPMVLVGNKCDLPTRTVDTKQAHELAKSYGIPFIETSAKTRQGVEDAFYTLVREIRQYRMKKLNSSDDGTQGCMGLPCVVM

Sequence of GDP-bound HRAS wild-type protein (P01112 whole entry): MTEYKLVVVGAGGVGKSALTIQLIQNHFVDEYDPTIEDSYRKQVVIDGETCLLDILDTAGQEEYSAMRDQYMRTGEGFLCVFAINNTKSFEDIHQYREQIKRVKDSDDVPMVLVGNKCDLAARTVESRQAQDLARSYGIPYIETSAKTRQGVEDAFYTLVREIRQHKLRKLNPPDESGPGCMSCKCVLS

SMILES | HRAS/KRAS (ratio of KD value with respect to HRAS to KD value with respect to KRAS) [1] | NRAS/KRAS (ratio of KD value with respect to NRAS to KD value with respect to KRAS) [2]
CCOC[C@H]1C(=O)N[C@@H]([C@@H](C)CC)C(=O)N(C)CC(=O)N(C)[C@H]2C/C=C\CCN(C2=O)[C@@H](CC2CCC(F)(F)CC2)C(=O)N(C)CC(=O)N[C@@H](CCc2cc(F)c(C(F)(F)F)c(F)c2)C(=O)N2C[C@H](OCC)C[C@H]2C(=O)NC2(CC(C)(C)C2)C(=O)N(C)[C@@H](C(CC)CC)C(=O)N(C)[C@H](C(=O)N(C)C)CC(=O)N1C [PP2450] | A (a compound having 10 or more and less than 20 is denoted as A) | A (a compound having 10 or more and less than 20 is denoted as A)
CCOC[C@H]1C(=O)N[C@@H]([C@@H](C)CC)C(=O)N(C)CC(=O)N(C)[C@H]2C/C=C\CCN(C2=O)[C@@H](Cc2ccc(C)cc2)C(=O)N(C)CC(=O)N[C@@H](CCc2ccc(C(F)(F)F)c(Cl)c2)C(=O)N2C[C@@H](C)C[C@H]2C(=O)NC2(CC(C)(C)C2)C(=O)N(C)[C@@H](C2CCCC2)C(=O)N(C)[C@H](C(=O)N(C)CC)CC(=O)N1C [PP2451] | A (a compound having 10 or more and less than 20 is denoted as A) | A (a compound having 10 or more and less than 20 is denoted as A)
CCO[C@@H]1C[C@H]2C(=O)NC3(CC(C)(C)C3)C(=O)N(C)[C@@H](C(CC)CC)C(=O)N(C)[C@H](C(=O)N(C)C)CC(=O)N(C)[C@@H](COC)C(=O)N[C@@H]([C@@H](C)CC)C(=O)N(C)CC(=O)N(C)[C@H]3C/C=C\CCN(C3=O)[C@@H](CC3CCCCC3)C(=O)N(C)CC(=O)N[C@@H](CCc3ccc(C(F)(F)F)c(OC)c3)C(=O)N2C1 [PP2452] | A (a compound having 10 or more and less than 20 is denoted as A) | A (a compound having 10 or more and less than 20 is denoted as A)
CCCOC[C@H]1C(=O)N[C@@H]([C@@H](C)CC)C(=O)N(C)CC(=O)N(C)[C@H]2C/C=C\CCN(C2=O)[C@@H](Cc2ccc(C)cc2)C(=O)N(C)CC(=O)N[C@@H](CCc2ccc(C(F)(F)F)c(Cl)c2)C(=O)N2C[C@@H](C)C[C@H]2C(=O)NC2(CC(C)(C)C2)C(=O)N(C)[C@@H](C2CCCC2)C(=O)N(C)[C@H](C(=O)N(C)C)CC(=O)N1C [PP2453] | A (a compound having 10 or more and less than 20 is denoted as A) | A (a compound having 10 or more and less than 20 is denoted as A)
CCC(CC)[C@H]1C(=O)N(C)[C@H](C(=O)N(C)C)CC(=O)N(C)[C@@H](COC)C(=O)N[C@@H]([C@@H](C)CC)C(=O)N(C)CC(=O)N(C)[C@H]2C/C=C\CCN(C2=O)[C@@H](CC2CCC(F)(F)CC2)C(=O)N(C)CC(=O)N[C@@H](CCc2ccc(C(F)(F)F)c(Cl)c2)C(=O)N2C[C@@H](C)C[C@H]2C(=O)NC2(CC(C)(C)C2)C(=O)N1C [PP2454] | A (a compound having 10 or more and less than 20 is denoted as A) | AA (a compound having 20 or more is denoted as AA)
CC[C@H](C)[C@@H]1NC(=O)[C@H](COC)N(C)C(=O)C[C@@H](C(=O)N(CC)CC)N(C)C(=O)[C@H](C2CCCC2)N(C)C(=O)C2(CC(C)(C)C2)NC(=O)[C@@H]2C[C@H](C)CN2C(=O)[C@H](CCc2cc(F)c(C(F)(F)F)c(F)c2)NC(=O)CN(C)C(=O)[C@H](Cc2ccc(C)cc2)N2CC/C=C\C[C@@H](C2=O)N(C)C(=O)CN(C)C1=O [PP2455] | A (a compound having 10 or more and less than 20 is denoted as A) | AA (a compound having 20 or more is denoted as AA)
CCO[C@@H]1C[C@H]2C(=O)NC3(CC(C)(C)C3)C(=O)N(C)[C@@H](C(CC)CC)C(=O)N(C)[C@H](C(=O)N(C)C)CC(=O)N(C)[C@@H](COC)C(=O)N[C@@H]([C@@H](C)CC)C(=O)N(C)CC(=O)N(C)[C@H]3C/C=C\CCN(C3=O)[C@@H](CC3CCCCC3)C(=O)N(C)CC(=O)N[C@@H](CCc3cc(F)c(C(F)(F)F)c(F)c3)C(=O)N2C1 [PP2456] | A (a compound having 10 or more and less than 20 is denoted as A) | A (a compound having 10 or more and less than 20 is denoted as A)
CCOC[C@H]1C(=O)N[C@@H]([C@@H](C)CC)C(=O)N(C)CC(=O)N(C)[C@H]2C/C=C\CCN(C2=O)[C@@H](Cc2ccc(C)cc2)C(=O)N(C)CC(=O)N[C@@H](CCc2cc(F)c(C(F)(F)F)c(F)c2)C(=O)N2C[C@@H](C)C[C@H]2C(=O)NC2(CC(C)(C)C2)C(=O)N(C)[C@@H](C2CCCC2)C(=O)N(C)[C@H](C(=O)N(C)CC)CC(=O)N1C [PP2457] | A (a compound having 10 or more and less than 20 is denoted as A) | A (a compound having 10 or more and less than 20 is denoted as A)
CCOC[C@H]1C(=O)N[C@@H]([C@@H](C)CC)C(=O)N(C)CC(=O)N(C)[C@H]2C/C=C\CCN(C2=O)[C@@H](CC2CCC(F)(F)CC2)C(=O)N(C)CC(=O)N[C@@H](CCc2ccc(C(F)(F)F)c(OC)c2)C(=O)N2C[C@@H](C)C[C@H]2C(=O)NC2(CC(C)(C)C2)C(=O)N(C)[C@@H](C(CC)CC)C(=O)N(C)[C@H](C(=O)N(C)C)CC(=O)N1C [PP2458] | A (a compound having 10 or more and less than 20 is denoted as A) | A (a compound having 10 or more and less than 20 is denoted as A)
CCOC[C@H]1C(=O)N[C@@H]([C@@H](C)CC)C(=O)N(C)CC(=O)N(C)[C@H]2C/C=C\CCN(C2=O)[C@@H](CC2CCC(F)(F)CC2)C(=O)N(C)CC(=O)N[C@@H](CCc2ccc(C(F)(F)F)c(Cl)c2)C(=O)N2C[C@H](OCC)C[C@H]2C(=O)NC2(CC(C)(C)C2)C(=O)N(C)[C@@H](C(CC)CC)C(=O)N(C)[C@H](C(=O)N(C)C)CC(=O)N1C [PP2460] | A (a compound having 10 or more and less than 20 is denoted as A) | A (a compound having 10 or more and less than 20 is denoted as A)
CCCOC[C@H]1C(=O)N[C@@H]([C@@H](C)CC)C(=O)N(C)CC(=O)N(C)[C@H]2C/C=C\CCN(C2=O)[C@@H](Cc2ccc(C)cc2)C(=O)N(C)CC(=O)N[C@@H](CCc2ccc(C(F)(F)F)c(OC)c2)C(=O)N2C[C@@H](C)C[C@H]2C(=O)NC2(CC(C)(C)C2)C(=O)N(C)[C@@H](C2CCCC2)C(=O)N(C)[C@H](C(=O)N(C)CC)CC(=O)N1C [PP2461] | A (a compound having 10 or more and less than 20 is denoted as A) | A (a compound having 10 or more and less than 20 is denoted as A)
CCOC[C@H]1C(=O)N[C@@H]([C@@H](C)CC)C(=O)N(C)CC(=O)N(C)[C@H]2C/C=C\CCN(C2=O)[C@@H](CC2CCC(F)(F)CC2)C(=O)N(C)CC(=O)N[C@@H](CCc2cc(F)c(C(F)(F)F)c(F)c2)C(=O)N2C[C@@H](C)C[C@H]2C(=O)NC2(CC(C)(C)C2)C(=O)N(C)[C@@H](C(CC)CC)C(=O)N(C)[C@H](C(=O)N(C)C)CC(=O)N1C [PP2462] | A (a compound having 10 or more and less than 20 is denoted as A) | A (a compound having 10 or more and less than 20 is denoted as A)
CCCOC[C@H]1C(=O)N[C@@H]([C@@H](C)CC)C(=O)N(C)CC(=O)N(C)[C@H]2C/C=C\CCN(C2=O)[C@@H](Cc2ccc(C)cc2)C(=O)N(C)CC(=O)N[C@@H](CCc2ccc(C(F)(F)F)c(OC)c2)C(=O)N2C[C@H](OCC)C[C@H]2C(=O)NC2(CC(C)(C)C2)C(=O)N(C)[C@@H](C2CCCC2)C(=O)N(C)[C@H](C(=O)N(C)CC)CC(=O)N1C [PP2463] | A (a compound having 10 or more and less than 20 is denoted as A) | A (a compound having 10 or more and less than 20 is denoted as A)
CCCOC[C@H]1C(=O)N[C@@H]([C@@H](C)CC)C(=O)N(C)CC(=O)N(C)[C@H]2C/C=C\CCN(C2=O)[C@@H](CC2CCC(F)(F)CC2)C(=O)N(C)CC(=O)N[C@@H](CCc2ccc(C(F)(F)F)c(OC)c2)C(=O)N2C[C@H](OCC)C[C@H]2C(=O)NC2(CC(C)(C)C2)C(=O)N(C)[C@@H](C(CC)CC)C(=O)N(C)[C@H](C(=O)N(C)C)CC(=O)N1C [PP2464] | A (a compound having 10 or more and less than 20 is denoted as A) | A (a compound having 10 or more and less than 20 is denoted as A)
CCOC[C@H]1C(=O)N[C@@H]([C@@H](C)CC)C(=O)N(C)CC(=O)N(C)[C@H]2C/C=C\CCN(C2=O)[C@@H](Cc2ccc(C)cc2)C(=O)N(C)CC(=O)N[C@@H](CCc2ccc(C(F)(F)F)c(Cl)c2)C(=O)N2C[C@@H](C)C[C@H]2C(=O)NC2(CC(C)(C)C2)C(=O)N(C)[C@@H](C2CCCC2)C(=O)N(C)[C@H](C(=O)N(CC)CC)CC(=O)N1C [PP2465] | A (a compound having 10 or more and less than 20 is denoted as A) | AA (a compound having 20 or more is denoted as AA)
CCC(CC)[C@H]1C(=O)N(C)[C@H](C(=O)N(C)C)CC(=O)N(C)[C@@H](COC)C(=O)N[C@@H]([C@@H](C)CC)C(=O)N(C)CC(=O)N(C)[C@H]2C/C=C\CCN(C2=O)[C@@H](CC2CCCCC2)C(=O)N(C)CC(=O)N[C@@H](CCc2ccc(C(F)(F)F)c(OC)c2)C(=O)N2C[C@@H](C)C[C@H]2C(=O)NC2(CC(C)(C)C2)C(=O)N1C [PP2466] | A (a compound having 10 or more and less than 20 is denoted as A) | A (a compound having 10 or more and less than 20 is denoted as A)
